# Like-named read-outs stand apart in the source and are kept apart here. Non-standard residues stand in square brackets, D forms with d. Residues, ends and D or L forms follow the SMILES beside them. Aib = CC(C)(N)C(=O)O
# Tests used:
# [1] = Chemical stability by RP-HPLC (% main peak); assay type: physicochemical; details: for 4° C. % Main Peak / 30° C. % Main Peak / 40° C. % Main Peak: 4 weeks; for % Main Peak Day 0: RP-HPLC
# Experimental: (§1) The compound of SEQ ID NO: 2 is dissolved in H2O to a 10 mg/mL concentration (peptide content), filtered through a 0.22 μm filter (Millex, SLGV004SL), and then diluted to 1 mg/mL in Buffer P5 (10 mM Histidine, 150 mM NaCl in H2O, pH 5.0) or Buffer P6 (10 mM Histidine, 150 mM NaCl in H2O, pH 6.0). Each solution is transferred to three vials and autoclaved. Samples are then maintained at 4° C., 30° C. and 40° C. Samples are visually assessed at different time points for turbidity and phase separation. Stability of the compound is assessed by analytical reverse phase HPLC (RP-HPLC) on a Phenomenex Aeris Widepore, 3.6 μm, XB-C18 4.6×100 mm column (P/NO 00D-4482-E0) heated at 60° C. with a AB (A=0.05% TFA/H2O; B=0.04% TFA/acetonitrile) gradient of 5% B isocratic over 5 min, 5 to 25% B over 20 minutes, 25 to 30% B over 30 min, and 30 to 45% B over 10 min with a flow rate of 1.2 mL/min (wavelength of 220 ηm).
# The compound of SEQ ID NO: 2 also maintains chemical stability at pH 5 (Buffer P5) and pH 6 (Buffer P6) when maintained at 4° C., 30° C. and 40° C. for 4 weeks.
# [2] = Physical stability test using Thioflavin T binding assay (fibrillation); assay type: physicochemical; details: 25° C.; for Thioflavin T fluorescence t = 0 h / Thioflavin T fluorescence t = 40 h / Thioflavin T fluorescence t = 120 h: 1 mg/mL, 300 rpm
# Experimental: Fibrillation is a common problem when glucagon is formulated in aqueous solution. To assess the level of fibrillation of the compound of the present invention, a Thioflavin T binding assay is performed.
# All samples are mechanically stressed at 25° C. in a magnetic stir plate set at 300 rpm. […] Raw data is collected with Softmax Pro 5.4.1 (Molecular Devices) and imported to Excel.
# [3] = assay type: physicochemical
# Experimental: as §1
# [4] = test system: C57/Bl6 male mice; experiment: Effects on blood glucose levels in C57/Bl6 male mice; assay type: in vivo; details: for Blood glucose levels: mean±SEM of 4 mice
# Experimental: To determine the effects of the compound of SEQ ID NO: 2 on blood glucose levels, the compound is administered to C57/Bl6 mice. Three month old male C57BL6 mice (Harlan Laboratories) are used Animals are individually housed in a temperature-controlled (24° C.) facility with a 12 hour light/dark cycle, and have free access to food and water. After 1 week acclimation to the facility, mice are randomized to treatment groups (n=4/group). Test compound is formulated in Buffer 2 (see Physical stability test using Thioflavin T binding assay). On the morning of test, food is removed at 08:00 AM. Two hours after food is removed, the test compound is given subcutaneously at 0, 1, 3 or 10 μg/kg doses. Blood glucose is measured at time 0, 15, 30, 60 and 120 minutes after test compound administration with an ACCU-CHECK® (Roche Diagnostics) glucometer. […] Results are expressed as mean±standard error mean (SEM) of 4 mice per group.
# Blood glucose levels at 10 μg/kg of compound of SEQ ID NO: 2 is taken as the maximum value.
# [5] = Buffer 1 (20 mM Histidine, pH 6.0)
# [6] = Buffer 2 (10 mM Histidine, 150 nM NaCl, pH 6.0)
# [7] = Buffer 3 (10 mM Histidine, 300 mM sorbitol, pH 6.0)
# [8] = Buffer 4 (10 mM Histidine, 0.02% Tween 80, pH 6.0)
# [9] = Buffer 5 (10 mM Histidine, 300 mM Arginine, pH 6.0)
# [10] = Buffer 6 (10 mM Histidine, 300 mM sucrose, pH 6.0)
smiles,measurement,setting,value
CC(C)C[C@H](NC(=O)[C@H](Cc1c[nH]c2ccccc12)NC(=O)[C@H](CCC(=O)O)NC(=O)[C@@H](NC(=O)[C@H](Cc1ccccc1)NC(=O)[C@H](CCC(=O)O)NC(=O)[C@H](CCC(N)=O)NC(=O)[C@H](C)NC(=O)[C@H](CCCCN)NC(=O)[C@H](CCCCN)NC(=O)C(C)(C)NC(=O)[C@H](CC(=O)O)NC(=O)[C@H](CC(C)C)NC(=O)[C@H](Cc1ccc(O)cc1)NC(=O)[C@H](CCCCN)NC(=O)[C@H](CO)NC(=O)[C@H](Cc1ccc(O)cc1)NC(=O)[C@H](CC(=O)O)NC(=O)[C@H](CO)NC(=O)[C@H](CC(C)C)NC(=O)[C@H](Cc1ccccc1)NC(=O)[C@@H](NC(=O)CNC(=O)[C@H](CCC(N)=O)NC(=O)[C@H](C)NC(=O)[C@@H](N)Cc1c[nH]cn1)[C@@H](C)O)C(C)C)C(=O)N[C@@H](CC(C)C)C(=O)N[C@@H](CCCCN)C(=O)N[C@H](C(=O)NCC(=O)N1CCC[C@H]1C(=O)N[C@@H](CO)C(=O)N[C@@H](CO)C(=O)NCC(=O)N[C@@H](C)C(=O)N1CCC[C@H]1C(=O)N1CCC[C@H]1C(=O)N[C@@H](CCCCN)C(=O)N[C@@H](CO)C(=O)N[C@@H](CCCCN)C(N)=O)[C@@H](C)O [SEQ ID NO: 2] (H-HAQGTFLSDYSKYLD[Aib]KKAQEFVEWLLKTGPSSGAPPKSK-NH2),4° C. % Main Peak,[1]; Buffer P5 (pH 5.0),98.01%
same,30° C. % Main Peak,[1]; Buffer P5 (pH 5.0),97.07%
same,40° C. % Main Peak,[1]; Buffer P5 (pH 5.0),92.64%
same,% Main Peak Day 0,[1]; Buffer P5 (pH 5.0),99.55%
same,4° C. % Main Peak,[1]; Buffer P6 (pH 6.0),98.60%
same,30° C. % Main Peak,[1]; Buffer P6 (pH 6.0),97.71%
same,40° C. % Main Peak,[1]; Buffer P6 (pH 6.0),95.00%
same,% Main Peak Day 0,[1]; Buffer P6 (pH 6.0),99.02%
same,main peak changes,"[1]; pH 5 (Buffer P5), after 4 weeks at 30° vs. 4° C.",less than 1%
same,main peak changes,"[1]; pH 5 (Buffer P5), after 4 weeks at 40° C. vs. 4° C.",less than 6%
same,main peak changes,"[1]; pH 6 (Buffer P6), after 4 weeks at 30° vs. 4° C.",less than 1%
same,main peak changes,"[1]; pH 6 (Buffer P6), after 4 weeks at 40° C. vs. 4° C.",less than 4%
same,fibrillation as measured by the Thioflavin T binding assay,"[2]; pH 6, mechanical stress",did not demonstrate fibrillation
same,Thioflavin T fluorescence t = 0 h,[2]; [5],74.6 fluorescence units
same,Thioflavin T fluorescence t = 40 h,[2]; [5],76.9 fluorescence units
same,Thioflavin T fluorescence t = 120 h,[2]; [5],89.2 fluorescence units
same,Thioflavin T fluorescence t = 0 h,[2]; [6],130.1 fluorescence units
same,Thioflavin T fluorescence t = 120 h,[2]; [6],137.0 fluorescence units
same,Thioflavin T fluorescence t = 40 h,"[2]; Buffer 2 (10 mM Histidine, NaCl, pH 6.0)",137.3 fluorescence units
same,Thioflavin T fluorescence t = 0 h,[2]; [7],68.1 fluorescence units
same,Thioflavin T fluorescence t = 40 h,[2]; [7],71.4 fluorescence units
same,Thioflavin T fluorescence t = 120 h,[2]; [7],72.4 fluorescence units
same,Thioflavin T fluorescence t = 0 h,[2]; [8],51.9 fluorescence units
same,Thioflavin T fluorescence t = 40 h,[2]; [8],56.2 fluorescence units
same,Thioflavin T fluorescence t = 120 h,[2]; [8],57.4 fluorescence units
same,Thioflavin T fluorescence t = 0 h,[2]; [9],113.9 fluorescence units
same,Thioflavin T fluorescence t = 40 h,[2]; [9],120.0 fluorescence units
same,Thioflavin T fluorescence t = 120 h,[2]; [9],123.2 fluorescence units
same,Thioflavin T fluorescence t = 0 h,[2]; [10],78.0 fluorescence units
same,Thioflavin T fluorescence t = 40 h,[2]; [10],74.1 fluorescence units
same,Thioflavin T fluorescence t = 120 h,[2]; [10],88.9 fluorescence units
same,solubility by visual assessment and RP-HPLC,[3],maintains good solubility
same,Physical appearance,"[3]; 1 mg/mL, Buffer P5 and P6, over 4 weeks","clear to colorless, with no opalescences and no particles"
same,30° C. vs 4° C. Recovery 4 wk,[3]; Buffer P5 (pH 5.0),100%
same,40° C. vs 4° C. Recovery 4 wk,[3]; Buffer P5 (pH 5.0),100%
same,30° C. vs 4° C. Recovery 4 wk,[3]; Buffer P6 (pH 6.0),100%
same,40° C. vs 4° C. Recovery 4 wk,[3]; Buffer P6 (pH 6.0),101%
same,4° C. Total Peak Area 4 wk,[3]; pH 5,4933
same,30° C. Total Peak Area 4 wk,[3]; pH 5,4932
same,40° C. Total Peak Area 4 wk,[3]; pH 5,4932
same,4° C. Total Peak Area 4 wk,[3]; pH 6,4918
same,30° C. Total Peak Area 4 wk,[3]; pH 6,4911
same,40° C. Total Peak Area 4 wk,[3]; pH 6,4960
same,Blood glucose levels,"[4]; 1 μg/kg subcutaneously, 0 minutes",165.3 ± 16.7 mg/dL
same,Blood glucose levels,"[4]; 1 μg/kg subcutaneously, 15 minutes",212.0 ± 12.6 mg/dL
same,Blood glucose levels,"[4]; 1 μg/kg subcutaneously, 30 minutes",203.1 ± 13.1 mg/dL
same,Blood glucose levels,"[4]; 1 μg/kg subcutaneously, 60 minutes",169.9 ± 10.1 mg/dL
same,Blood glucose levels,"[4]; 1 μg/kg subcutaneously, 120 minutes",141.0 ± 4.2 mg/dL
same,Blood glucose levels,"[4]; 3 μg/kg subcutaneously, 0 minutes",148.0 ± 4.6 mg/dL
same,Blood glucose levels,"[4]; 3 μg/kg subcutaneously, 15 minutes",234.1 ± 9.8 mg/dL
same,Blood glucose levels,"[4]; 3 μg/kg subcutaneously, 30 minutes",242.1 ± 8.3 mg/dL
same,Blood glucose levels,"[4]; 3 μg/kg subcutaneously, 60 minutes",169.4 ± 7.3 mg/dL
same,Blood glucose levels,"[4]; 3 μg/kg subcutaneously, 120 minutes",148.2 ± 10.9 mg/dL
same,Blood glucose levels,"[4]; 10 μg/kg subcutaneously, 0 minutes",155.4 ± 10.1 mg/dL
same,Blood glucose levels,"[4]; 10 μg/kg subcutaneously, 15 minutes",270.0 ± 12.7 mg/dL
same,Blood glucose levels,"[4]; 10 μg/kg subcutaneously, 30 minutes",308.5 ± 2.6 mg/dL
same,Blood glucose levels,"[4]; 10 μg/kg subcutaneously, 60 minutes",212.4 ± 8.3 mg/dL
same,Blood glucose levels,"[4]; 10 μg/kg subcutaneously, 120 minutes",152.4 ± 1.5 mg/dL
same,ED50,"[4]; calculated on the 30 minute glucose measurements, 10 μg/kg taken as maximum, subcutaneous",3.28 µg/kg
same,effect on blood glucose,"[4]; subcutaneous, C57/Bl6 mice",able to increase blood glucose

# Source: US9695225B2, “Peptide compound for treatment of severe hypoglycemia” (Eli Lilly and Company, priority 2013, dated 2017)
